Data as given in patent US20110166038A1, “SCREENING METHODS FOR HEAT-SHOCK RESPONSE MODULATORS” (SCREENING METHODS FOR HEAT-SHOCK RESPONSE MODULATIORS, priority 2008, published 2011).

How the values were obtained:
Format in all cases: cell-based
SH-SY5Y cells = assay: Rotenone model, MTS readout; conditions: 100 nM for 24 hours
Text: This experiment tests the hits from the MaCRA HSF1 activator screening in a secondary rotenone assay for cytoprotective effects of test compounds on SHSY5Y cells. The rotenone model of Parkinson's disease is an in vitro system for study of protein aggregation induced cytotoxicity. […] See Greenamyre et al., Parkinsonism Relat. Disord., Suppl 2:S59-S64 (2003). Therefore, this in vitro system may be adopted to evaluate cytoprotective effects of the HSF1/HSP70 MaCRA screening hits as carried out essentially as described in Sherer et al., J. Neuroscience, 23(34):10756-10764, 2003. […] In summary, the small molecule HSF1/HSP70 amplifier identified from our HSF1/HSP70 screening can rescue cells from two different stress conditions with cytoprotective benefits, possibly through the mechanism of HSF1/HSP70 amplification.

HSP70 [1] = assay: MaCRA HCS HSP70 granule assay, heat shock 41° C.; conditions: Homo sapiens, HeLa, read-out: EC50 of HSP granule area
Experimental: (§1) This experiment was directed to developing of a HSF1/HSP70 high-content screening (HCS) assay for screening HSF1 activators. HeLa cells were pretreated with a compound (celastrol) one hour before heat shock at 41° C. for two hours. The dilution in Dulbecco's Modified Eagle's Medium (DMEM) was 200-fold resulting in a final concentration of 30 μM for screening. A custom made aluminum plate was designed for better heat transduction and to achieve a constant temperature with minimal variability for the 96-well plate. The aluminum plate was placed inside a 41° C. incubator for one day prior to the experiment.
Immunocytochemical staining for HSF1 and HSP70 in HeLa cells was performed as in Zhang et al., Biomol Screen., 13(6):538-543, 2008. Image acquisition was performed using an INcell 1000 (GE Healthcare, Piscataway, N.J.) integrated with a Twister II (Caliper Life Sciences, Hopkinton, Mass.) for automated plate delivery. […]
A Multi Target Analysis Module (MTA) module from Workstation software (GE Healthcare) provides a high-speed measurement of nuclear granules including granule count, granule area, granule intensity and nuclear intensity CV (CV of pixel intensity in the nucleus). FIGS. 2A and 2B provide a quantification of HSF1 variables via granule count and nuclear intensity CV. FIGS. 2C and 2D adopted granule count and granule area for the quantification of HSP70 granules. […]

HSF1 [2] = assay: MaCRA HCS HSF1 granule assay, heat shock 41° C.
Experimental: as §1
Immunocytochemical staining for HSF1 and HSP70 in HeLa cells was performed as in Zhang et al., Biomol Screen., 13(6):538-543, 2008. Image acquisition was performed using an INcell 1000 (GE Healthcare, Piscataway, N.J.) integrated with a Twister II (Caliper Life Sciences, Hopkinton, Mass.) for automated plate delivery. Image analysis was carried out using a Multi Target Analysis module from Workstation 3.6. Algorithms for HSF1/HSP70 granule count, granule area and nuclear intensity CV were established according to assay conditions and manufacture instructions. EC50 values and curve fitting were performed using a Prism 4.0 (GraphPad Software, San Diego, Calif.) with nonlinear regression analysis.
A Multi Target Analysis Module (MTA) module from Workstation software (GE Healthcare) provides a high-speed measurement of nuclear granules including granule count, granule area, granule intensity and nuclear intensity CV (CV of pixel intensity in the nucleus). FIGS. 2A and 2B provide a quantification of HSF1 variables via granule count and nuclear intensity CV. FIGS. 2C and 2D adopted granule count and granule area for the quantification of HSP70 granules.
By comparison, DMSO-treated cells contain, on average, 2.46±0.22 granules. To achieve a relatively low background, HeLa cells that contained more than 5 HSF1 granules were designated as “HSF1 granule positive cells”. The thresholds for HSF1 nuclear intensity CV, HSP70 granule count and HSP70 granule area were also chosen with gating values equivalent to the average of DMSO treated samples plus 2 or more standard deviations (FIG. 2B-2D).
Experiment 3: HeLa cells were seeded in Costar 96-well assay plates (Costar 3904) at a density of 8,000 cells/well approximately 16 to 24 hours before compound treatment. Subsequently, the cells were treated with DMSO. […] Heat shock was carried out at 41° C. for 2 hours with no recovery time. Immediately following heat shock, 50 μL of 16% para-formaldehyde was mixed with the culture medium (total volume at 150 μL) to a final concentration of 4%. The plates were incubated at room temperature for 30 minutes before washing with PBS. […]

HSP70 [3] = assay: HSP70 inhibitor assay, heat shock 43° C.; conditions: HeLa, 1 μM triptolide or 10 μM CYT compound, 43° C. 1-4 hours, recovery 0-7 hours
Experimental: (§2) Experiment 2: HeLa cells were treated with 1 μM of Triptolide and 10 μM of CYT975 (▪), CYT1563 (▴) and CYT1590 ([…]) 30 minutes before heat shock. The cells subsequently underwent heat shock at 43° C. for 1 hour with 0, 5 or 7 hours recovery time with total HSP70 nuclear and cell intensity as the threshold.
as §2, with “Experiment 3:” for “Experiment 2:”, “for 2 hours” for “for 1 hour”, “0, 4” for “0, 5”, “or 6” for “or 7”
as §2, with “4:” for “2:”, “3 hours” for “1 hour”, “0, 3 or” for “0,”, “5” for “5 or 7”, “threshold. […]” for “threshold.”
Experiment 3: HSP70 expression induced by Triptolide (▪), CYT1563 (▴) and DMSO (0, control) was evaluated in a 96-well plate format (See Example 4) following heat shock at 43° C. for 2 hours with 4 hours recovery time. […]
Experiment 4: HSP70 expression induced by Triptolide (▪), CYT1563 (▴) and DMSO (♦, control) was evaluated in a 96-well plate format (See Example 4) following heat shock at 43° C. for 4 hours with 4 hours recovery time. […]

HSF1 [4] = assay: HSF1 granule inhibitor assay, heat shock 43° C.; conditions: HeLa, 10 nM-10 μM, 43° C. 1-4 hours, threshold 5 granules/nucleus
Experimental: Experiment 1: HeLa cells were treated with four different […] (10 nM, 100 nM, 1 μM and 10 μM) of triptolide and subsequently underwent heat shock at 43° C. for 1 to 4 hours. […] HSF1 granule count was measured with 5 granules/nucleus used as the threshold. Similar assay conditions were used to test the effect of various compounds selected using MaCRA methods as described herein.
Experiment 1: HSF1 granule formation induced by Triptolide (▪), CYT1563 (▴) and DMSO (♦, control) was evaluated in a 96-well plate format (See Example 4) following heat shock at 43° C. for 2 hours with no recovery time. FIG. 26A illustrates the HSF1 inhibition.
Experiment 2: HSF1 granule formation induced by Triptolide (▪), CYT1563 (▴) and DMSO (♦, control) was evaluated in a 96-well plate format (See Example 4) following heat shock at 43° C. for 4 hours with 4 hours recovery time. FIG. 26B illustrates the HSF1 inhibition.
HeLa cells were treated with DMSO (♦) or CYT 1563 (10 μM) (▪) and subsequently heat shocked at 43° C. for 2 h with no recovery time using HSF1 granule count in a 384-well plate format (See Example 10). Results including the Z′ values and Signal/Background (S/B) ratio are illustrated in FIG. 27.

In the case of `C=C(C)[C@H]1Cc2c(ccc3c2O[C@@H]2COc4cc(OC)c(OC)cc4[C@@H]2C3=O)O1` [rotenone], the SH-SY5Y cells killed (SH-SY5Y cells) is reported as “more than 42%”.
With `CC1=C(O)C(=O)C=C2C1=CC=C1[C@@]2(C)CC[C@@]2(C)[C@@H]3C[C@](C)(C(=O)O)CC[C@]3(C)CC[C@]12C` [celastrol] the EC50 (HSP70 [1]) was 650 nM, the “HSF1 granule positive cells” value (HSF1 [2]; 96-well, 2 μM, 41° C. 2 h, HSF1 granule count) was 59.36% and the “average HSF1 stress granules per nucleus” value (HSF1 [2]; HeLa, 2 μM, 41° C. for two hours) was 5.34±0.72 granules per nucleus. For the same compound, the “HSF1 stress granules per nucleus, positive control at 43° C.” value (HSF1 [2]; HeLa, heat shock 43° C.) was “about 6.56” and the EC50 (HSF1 [2]; Homo sapiens, HeLa, read-out: EC50 of HSF1 intensity CV) was 1320 nM.
With `CC(C)[C@]12O[C@H]1[C@@H]1O[C@]13[C@]1(O[C@H]1C[C@H]1C4=C(CC[C@@]13C)C(=O)OC4)[C@@H]2O` [triptolide] the “HSP70 expression after heat shock” value (HSP70 [3]) was “reduction of HSP70 expression” and the “inhibition of HSF1 granule formation” value (HSF1 [4]) was “dose dependent inhibition of HSF1 granule formation”.
